Patent US12089595B2, “Pseudomonas strains and their metabolites to control plant diseases” (T3 Bioscience, Inc., priority 2020, dated 2024)
Converted amounts (≈) assume the structure as drawn. “Also recorded” adds a separate entry of the source.

How the values were obtained:
[1] = system: Pseudomonas syringae pv syringae 7046; assay: MIC antimicrobial assay (CLSI, 96 well plates); format: cell-based; conditions: Pseudomonas syringae pv syringae 7046 (Bacterial canker or blast)
[2] = system: Phytophthora infestans Pi 1306; assay: microbe, parasite or virus in culture; format: cell-based
[3] = system: Phytophthora infestans Pi 88069; assay: microbe, parasite or virus in culture; format: cell-based
Venturia inaequalis = assay: Antifungal assay on amended PDA plates; format: cell-based
Method: The fungus Venturia inaqualis that causes apple scab was maintained on PDA agar in the dark at room temperature (˜24° C.). A mixture of conidia and mycelia suspension (in 0.01 M PBS) was harvested from PDA (Potato dextrose agar). Ten μL the conidia and mycelia suspension were dropped onto biocontrol bacteria, RejuAgro A, or RejuAgro A amended plates. The control was PDA plates without the addition of the biocontrol bacteria or RejuAgro A or B. […]

[4] = system: Mycosphaerella fijiensis 10CR-25; assay: Antimicrobial effect in PDA agar medium (6-well plate); format: cell-based
Method: The antimicrobial effect of RejuAgro A on Mycosphaerella fijiensis was examined by adding final concentrations of 60 and 600 μg/mL of HPLC purified RejuAgro A respectively into the PDA agar medium. A 480 μL of 0.5 mg/mL or 5 mg/mL RejuAgro A was added into 3.52 mL of PDA in a well of a 6-well plate to make the final concentration of RejuAgro A at 60 (FIG. 12, middle well (panel A)) and 600 μg/mL (FIG. 12, left well (panel B)) respectively. The plate was gently shaken to let the compound dissolved.

[5] = system: Xanthomonas bacteria (Xanthomonas axonopodis pv. citri); assay: MIC antimicrobial assay; format: cell-based
P. infestans = assay: microbe, parasite or virus in culture; format: cell-based; conditions: Phytophthora infestans
strain 0617-T307 = assay: Bioactive fractions tested against the producer strain; format: cell-based, Pseudomonas soli; conditions: crude extracts 100 μg/mL; flash-RejuAgro A 20 μg/mL; HPLC-RejuAgro A 10 μg/mL
Method: (§1) Two assays were used for the antimicrobial test of 0617-T307 cell broth and metabolites. One is plate diffusion assay and the other one is microplate assay. LB plate was used for the plate diffusion assay of the antimicrobial activity of RejuAgro A containing fractions and cell broths against E. amylovora (Table 3).
(§2) The bioactive fractions (crude extracts, 100 μg/mL; flash-RejuAgro A, 20 μg/mL; HPLC-RejuAgro A, 10 μg/mL) were tested against strains 0617-T307, Ea and Xac.

Ea = assay: Bioactive fractions tested against Ea; format: cell-based, Erwinia amylovora; conditions: crude extracts 100 μg/mL; flash-RejuAgro A 20 μg/mL; HPLC-RejuAgro A 10 μg/mL
Method: as §1, §2

Xac = assay: Bioactive fractions tested against Xac; format: cell-based, Xanthomonas axonopodis pv. citri; conditions: crude extracts 100 μg/mL; flash-RejuAgro A 20 μg/mL; HPLC-RejuAgro A 10 μg/mL
[6] = system: Xanthomonas oryzae pv. oryzicola (Xon507); assay: microbe, parasite or virus in culture; format: cell-based; conditions: 44 h, read-out: Inhibition zone
[7] = system: Liberibacter crescens BT-1; assay: microbe, parasite or virus in culture; format: cell-based
Septoria tritici = assay: microbe, parasite or virus in culture; format: cell-based; conditions: Zymoseptoria tritici, 144 h
Colletotrichum dematium = assay: microbe, parasite or virus in culture; format: cell-based; conditions: 144 h
[8] = system: Fusarium oxysporum f. sp. Melonsis; assay: microbe, parasite or virus in culture; format: cell-based; conditions: 144 h
Magnaporthe oryzae = assay: microbe, parasite or virus in culture; format: cell-based; conditions: Pyricularia oryzae, 144 h
[9] = Stability of RejuAgro A in the culture (LCMS); format: physicochemical; conditions: room temperature; 40-h culture of 0617-T307 in YME; tested by LCMS
Method: RejuAgro A can be present and stable in the culture at room temperature for at least 4 weeks, as tested by LCMS for 40-h culture obtained by growing 0617-T307 in YME media on a shaker at 16° C. and 220 rpm.

Solubility in solvents = format: physicochemical; conditions: methanol, chloroform
Method: Preparative HPLC (Prep-HPLC) purification of the fraction 3840 and 5054 lead to the discovery of 15 mg yellow colored compound RejuAgro A (Rt17.5) and 103.3 mg dark-green colored compound RejuAgro B, respectively. […] The structures of the two compounds have been investigated by High resolution mass spectrometry (HR-MS), infrared (IR), Ultraviolet (UV), 1D and 2D Nuclear magnetic resonance (NMR) as well as X-ray crystal structure analysis.

[10] = system: Xanthomonas citri pv. citri citrange (XW19); assay: Paper disc inhibition zone on PSG agar plates; conditions: 44 h, read-out: Inhibition zone
[11] = system: Ralstonia solanacearum K60; assay: microbe, parasite or virus in culture; format: cell-based; conditions: K60, Ralstonia solanacearum K60 (bacterial wilt)
[12] = system: Ralstonia solanacearum Pss4; assay: microbe, parasite or virus in culture; format: cell-based; conditions: PSS4, Ralstonia solanacearum Pss4 (bacterial wilt)
E. amylovora Ea110 = assay: Field assay on apple trees in the orchard; format: in vivo, Erwinia amylovora; conditions: apple orchard 2019; bacteria at 5×10^8 CFU/mL; Ea110 5×10^6 CFU/mL; water control 32.9%
Description: For the field assay, biological control bacteria (0617-T307, 0118-T319, 0318-T327, 0418-T328; see Table 2) that produce RejuAgro A were applied on the flowers of the apple trees in the orchard on May 5th and May 6th of 2019 (40% and 70% bloom of apple flowers) at the concentration of 5×10^8 CFU/mL. The bacterial pathogen E. amylovora Ea110 was inoculated on May 7th (90% bloom), at the concentration of 5×10^6 CFU/mL. […] Compared with streptomycin, the biocontrol bacteria that produce RejuAgro A have similar or better efficacy on controlling fire blight in the apple orchards.

## CSC1=C(C)C(=O)C(=O)NC1=O [RejuAgro A]
[1]
  MIC: 20 µg/mL (≈ 108 µM)
[2]
  MIC: 40 µg/mL (≈ 216 µM)
[3]
  MIC: 40 µg/mL (≈ 216 µM)
Venturia inaequalis; 40-80 μg/mL in PDA plate, day 14 (figure)
  growth of V. inaequalis on PDA plates: can inhibit the growth; also recorded: cannot grow
Venturia inaequalis; Venturia inaequalis
  inhibition at 80 µg/mL: 100%
Venturia inaequalis; Venturia inaequalis (Apple scab)
  MIC: 80 µg/mL (≈ 432 µM)
[4]; 60 μg/mL
  growth of M. fijiensis on PDA agar: growth
[4]; 600 μg/mL, two weeks post-inoculation
  growth of M. fijiensis on PDA agar: complete inhibition; also recorded: inhibitory growth
[4]; Pseudocercospora fijiensis, 10CR25, Mycosphaerella fijiensis 10CR-25 (black sigatoka of Banana)
  MIC: 600 µg/mL (≈ 3240 µM)
[5]
  MIC: 5 µg/mL (≈ 27 µM)
P. infestans
  inhibition at 40 µg/mL: 100%
Strain 0617-T307
  inhibition of growth of strain 0617-T307: not able to inhibit the growth
Ea
  inhibition of growth of Ea: almost abolish the growth
Xac
  inhibition of growth of Xac: almost abolish the growth
[6]
  zone of inhibition at 5.5 µg/mL: 2.7 ± 0.6 mm
  zone of inhibition at 11.1 µg/mL: 5 ± 1 mm
  zone of inhibition at 22.1 µg/mL: 7.3 ± 1.5 mm
  zone of inhibition at 33.2 µg/mL: 8.3 ± 1.5 mm
  zone of inhibition at 55.4 µg/mL: 9.3 ± 0.6 mm
  zone of inhibition at 110.7 µg/mL: 13.3 ± 1.2 mm
[7]; 1 mg/L
  growth of L. crescens: partial inhibition of growth
[7]; 2.5 mg/L, for 16 days
  growth of L. crescens: inhibition of growth
[7]; BM7 medium at 28° C., 10 mg/L, 20 mg/L, and 40 mg/L
  growth of L. crescens BT1: inhibition of growth
[7]; Liberibacter crescens, BT1, read-out: minimal inhibitory concentration (MIC)
  MIC: 2.5 µg/mL (≈ 13.5 µM)
Septoria tritici
  MIC: 100 µg/mL (≈ 540 µM)
Colletotrichum dematium
  MIC: 50 µg/mL (≈ 270 µM)
[8]
  MIC: 100 µg/mL (≈ 540 µM)
Magnaporthe oryzae
  MIC: 75 µg/mL (≈ 405 µM)
[9]
  present and stable in the culture: at least 4 weeks
Solubility in solvents
  solubility in methanol and chloroform: can be dissolved
[10]
  zone of inhibition at 5.5 µg/mL: 0 mm
  zone of inhibition at 11.1 µg/mL: 0 mm
  zone of inhibition at 22.1 µg/mL: 0 mm
  zone of inhibition at 33.2 µg/mL: 0 mm
  zone of inhibition at 55.4 µg/mL: 2.3 ± 0.6 mm
  zone of inhibition at 110.7 µg/mL: 2.7 ± 1.2 mm

## [H]/N=C(/N)N[C@H]1[C@H](O)[C@@H](O)[C@H](O[C@@H]2O[C@@H](C)[C@](O)(C=O)[C@H]2O[C@@H]2O[C@@H](CO)[C@H](O)[C@@H](O)[C@@H]2NC)[C@@H](N/C(N)=N\[H])[C@@H]1O [Streptomycin, reference compound]
[1]
  MIC: 2.5 µg/mL (≈ 4.3 µM)
[11]
  MIC: 12.5 µg/mL (≈ 21.5 µM)
[12]
  MIC: 12.5 µg/mL (≈ 21.5 µM)
[5]
  MIC: 0.16 µg/mL (≈ 0.275 µM)
E. amylovora Ea110
  percentage of diseased flower clusters: 13.3%
